From patent publication US7713994B2 (Wyeth LLC, priority 2005, dated 2010)
“And” between values parts separate entries of the source, which are not always exact repeats. Equal values may be shown once. Read-outs that look alike come from different tables or passages of the source.

Key:
[1] = system: HCT-116; test: Cytotoxicity assay (SRB), HCT-116; assay type: cell-based; conditions: Homo sapiens, HCT-116, 72 h, read-out: In Vitro Cellular Activity IC50 HCT116
Outline: (§1)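 Overnight-seeded monolayers (4000–12000 cells/well by line) receive compound in 5% FBS medium at 37 °C, 7% CO2. After 3 d, or 6 d for BT474, cellular protein is fixed with cold TCA, stained with SRB and read at 540 nm against untreated wells.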

[2] = system: LoVo; test: Cytotoxicity assay (SRB), LoVo; assay type: cell-based; conditions: Homo sapiens, LoVo, 72 h, read-out: In Vitro Cellular Activity IC50 LOVO
Outline: as §1

[3] = molecular target: T1, cyclin B/CDK1 enzyme (Homo sapiens, UniProt P06493); test: CDK1 ELISA kinase assay (phospho-Rb ser 795 detection); assay type: biochemical
T1 construct: purchased New England BioLabs; host or cells: Sf9 insect cells, recombinant baculovirus
Outline: (§2)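 Wells were coated overnight with GST-Rb C-terminal fragment, then blocked. Compound (10 ug/ml final) and cyclin/CDK enzyme from baculovirus-infected Sf9 cells with 200 μM ATP reacted 1 h at 30° C. Ser795 phosphorylation was detected by ELISA at 450 nm.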

[4] = I.V. and P.O. Dosing in Mice; assay type: in vivo; conditions: for AUC(0-inf) / bioavailability: mouse, in vivo; for bioavailability: po 50 mg/kg vs i.v. 2 mg/kg
[5] = system: MCF-7; test: Cytotoxicity assay (SRB), MCF-7; assay type: cell-based; conditions: Homo sapiens, MCF7, 72 h, read-out: In Vitro Cellular Activity IC50 MCF-7
Outline: as §1

[6] = system: BT474; test: Cytotoxicity assay (SRB), BT474; assay type: cell-based; conditions: Homo sapiens, BT-474, 144 h, read-out: In Vitro Cellular Activity IC50 BT474
Outline: as §1

[7] = molecular target: T2, cyclin D1/cdk 4 enzyme (Homo sapiens, UniProt P11802); test: CDK4 ELISA kinase assay (phospho-Rb ser 795 detection); assay type: biochemical
T2 construct: made in house; host or cells: Sf9 insect cells, recombinant baculovirus
Outline: as §2

[8] = molecular target: T3, cyclin E/CDK2 enzyme (Homo sapiens, UniProt P24941); test: CDK2 ELISA kinase assay (phospho-Rb ser 795 detection); assay type: biochemical
T3 construct: made in house; host or cells: Sf9 insect cells, recombinant baculovirus
Outline: as §2

[9] = In Vitro Enzyme Assays, read-out: CDK1 IC50
[10] = iv, 2 mg/kg, dose i.v. 2 mg/kg, read-out: aucinf obs (i.v.)
[11] = po, 50 mg/kg, dose po 50 mg/kg, read-out: aucinf obs (po)
[12] = dose i.v. 2 mg/kg, second value, (methocel/tween)
[13] = In Vitro Enzyme Assay, cyclin E/CDK2, read-out: CDK2 IC50
[14] = In Vitro Enzyme Assay, cyclin D1/cdk 4, read-out: CDK4 IC50
[15] = In Vitro Enzyme Assay, cyclin B/CDK1, read-out: CDK1 IC50

T1 sequence (P06493 whole entry): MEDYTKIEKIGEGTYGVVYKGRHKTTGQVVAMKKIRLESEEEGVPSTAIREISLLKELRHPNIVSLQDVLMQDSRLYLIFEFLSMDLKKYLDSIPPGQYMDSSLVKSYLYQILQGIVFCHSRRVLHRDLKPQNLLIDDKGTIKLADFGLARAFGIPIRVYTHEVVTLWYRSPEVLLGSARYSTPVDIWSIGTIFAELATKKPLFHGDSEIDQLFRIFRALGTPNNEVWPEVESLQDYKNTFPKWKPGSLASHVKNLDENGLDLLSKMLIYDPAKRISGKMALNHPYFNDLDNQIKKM
T1 sequence (P14635 whole entry partner): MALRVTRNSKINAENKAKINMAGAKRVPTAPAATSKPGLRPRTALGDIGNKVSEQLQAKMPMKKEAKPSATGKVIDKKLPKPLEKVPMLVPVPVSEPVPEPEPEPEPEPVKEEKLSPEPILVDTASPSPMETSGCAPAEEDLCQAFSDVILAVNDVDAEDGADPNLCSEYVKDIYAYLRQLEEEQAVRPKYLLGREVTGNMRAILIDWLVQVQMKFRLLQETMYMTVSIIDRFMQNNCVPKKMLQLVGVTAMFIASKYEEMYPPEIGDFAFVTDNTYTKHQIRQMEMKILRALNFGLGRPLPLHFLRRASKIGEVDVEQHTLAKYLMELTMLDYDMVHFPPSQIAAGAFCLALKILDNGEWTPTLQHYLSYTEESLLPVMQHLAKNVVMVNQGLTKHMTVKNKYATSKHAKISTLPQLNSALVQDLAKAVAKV
T2 sequence (P11802 whole entry, species assumed): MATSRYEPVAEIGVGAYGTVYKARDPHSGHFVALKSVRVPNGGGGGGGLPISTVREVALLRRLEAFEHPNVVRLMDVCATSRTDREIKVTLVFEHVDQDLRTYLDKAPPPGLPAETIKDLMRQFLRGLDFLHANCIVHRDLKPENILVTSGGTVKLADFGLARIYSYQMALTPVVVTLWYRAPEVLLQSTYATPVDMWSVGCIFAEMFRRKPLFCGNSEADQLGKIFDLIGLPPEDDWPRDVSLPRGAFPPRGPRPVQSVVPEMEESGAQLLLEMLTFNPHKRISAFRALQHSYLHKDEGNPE
T2 sequence (P24385 whole entry partner, species assumed): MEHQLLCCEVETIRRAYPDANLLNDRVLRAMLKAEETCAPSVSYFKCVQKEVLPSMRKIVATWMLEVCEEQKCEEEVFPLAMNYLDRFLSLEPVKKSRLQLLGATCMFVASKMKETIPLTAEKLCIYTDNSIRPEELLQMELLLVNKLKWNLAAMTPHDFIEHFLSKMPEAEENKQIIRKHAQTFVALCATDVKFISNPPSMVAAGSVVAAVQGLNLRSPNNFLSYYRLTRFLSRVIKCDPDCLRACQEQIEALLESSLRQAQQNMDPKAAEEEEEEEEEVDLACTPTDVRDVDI

SMILES	Cl_obs ([4]; dose i.v. 2 mg/kg) [L/h/kg]	Vss_obs ([4]; dose i.v. 2 mg/kg) [L/kg]	HL_Lambda_z ([4]; dose po 50 mg/kg) [h]	AUC(0-inf) [4, 10] [µg·h/mL]	AUC(0-inf) [4, 11] [µg·h/mL]	bioavailability ([4]; po, 50 mg/kg) [%]	IC50 [8, 13]	IC50 ([2]; LoVo cells, 3 days, SRB) [µM]	IC50 ([6]; BT474 cells, 6 days, SRB) [µM]	IC50 [7, 14] [µM]	IC50 ([1]; HCT116 cells, 3 days, SRB) [µM]	IC50 [3, 15] [µM]	IC50 ([5]; MCF-7 cells, 3 days, SRB) [µM]	also measured
CCCOc1ccc(CN/C=C2\C(=O)NC(=O)c3ccc(I)cc32)cc1O [Example 178, (4Z)-4-{[(3-Hydroxy-4-propoxybenzyl)amino]methylene}-6-iodoisoquinoline-1,3(2H,4H)-dione]	1.98	1.5	6.1	0.999	0.36	14								IC50 ([1]; HCT116 cells, SRB, three days): 0.65 µM; IC50 ([2]; LoVo cells, SRB, three days): 0.74 µM; IC50 [3, 9]: 13.9 µM; IC50 ([5]; MCF-7 cells, SRB, three days): 1.8 µM; IC50 ([6]; BT474 cells, SRB, 6 days): 0.62 µM
CCCOc1cnc(CNC=C2C(=O)NC(=O)c3ccc(I)cc32)cc1O [Example 364, 4-{[(4-Hydroxy-5-propoxy-pyridin-2-ylmethyl)-amino]-methylene}-6-iodo-4H-isoquinoline-1,3-dione]	0.18	0.2	1.8	11	17.2	6.3								IC50 ([7]; In Vitro Enzyme Assays, 200 μM ATP, read-out: CDK4 IC50): 0.03 µM; IC50 ([1]; HCT116 cells, SRB, three days): 0.73 µM; IC50 ([8]; In Vitro Enzyme Assays, read-out: CDK2 IC50): 1.6 µM; IC50 ([2]; LoVo cells, SRB, three days): 0.52 µM; IC50 [3, 9]: 25.3 µM; Cl_obs [4, 12]: 0.126 L/h/kg; Vss_obs [4, 12]: 0.1 L/kg; HL_Lambda_z ([4]; dose po 50 mg/kg, second value, (methocel/tween)): 2.4 h; AUC(0-inf) ([4]; iv, 2 mg/kg, dose i.v. 2 mg/kg, second value, (methocel/tween), read-out: aucinf obs (i.v.)): 15.8 µg·h/mL; AUC(0-inf) ([4]; po, 50 mg/kg, dose po 50 mg/kg, second value, (methocel/tween), read-out: aucinf obs (po)): 5.35 µg·h/mL; bioavailability ([4]; po, 50 mg/kg, second value, (methocel/tween)): 1.4%; IC50 ([5]; MCF-7 cells, SRB, three days): 0.88 µM; IC50 ([6]; BT474 cells, SRB, 6 days): 0.34 µM
O=C1NC(=O)c2ccc(I)cc2/C1=C/NCc1ccc(-c2ccoc2)c(O)c1 [Example 506, 4-[(4-Furan-3-yl-3-hydroxy-benzylamino)-methylene]-6-iodo-4H-isoquinoline-1,3-dione]	4.74	6.7	2.6	0.423	5.59	53	4.7 µM	0.41	0.29					
O=C1NC(=O)c2ccc(I)cc2/C1=C/NCc1ccn(-c2ccccc2)c(=O)c1 [Example 517, (4Z)-6-Iodo-4-({[(2-oxo-1-phenyl-1,2-dihydropyridin-4-yl)methyl]amino}methylene)isoquinoline-1,3(2H,4H)-dione]	0.84	0.5	0.5	2.36	0.039	0.07	> 50 µM and 41.5 µM	0.17	0.09	0.27	0.25	29.6	0.79	
O=C1NC(=O)c2ccc(I)cc2/C1=C/NCc1ccn(-c2ccoc2)c(=O)c1 [Example 525, (4Z)-4-[({[1-(3-Furyl)-2-oxo-1,2-dihydropyridin-4-yl]methyl}amino)methylene]-6-iodoisoquinoline-1,3(2H,4H)-dione]	0.72	0.4	3.4	2.75	12	17	2.6 µM	0.45	0.14	0.06	0.71	11.6	0.71	
CCCOc1cnc(CN/C=C2\C(=O)NC(=O)c3ccc(C(C)(C)C)cc32)cc1O [Example 530, 6-tert-Butyl-4-{[(4-hydroxy-5-propoxy-pyridin-2-ylmethyl)-amino]-methylene}-4H-isoquinoline-1,3-dione]	0.9	0.2	5.3	2.24	7.2	13	0.96 µM	0.28	0.24		0.43		0.7	melting point: 162 to 178 °C (dec.)
CC(C)(C)c1ccc2c(c1)/C(=C/NCc1ccc(-c3ccoc3)c(O)c1)C(=O)NC2=O [Example 535, 6-tert-Butyl-4-[(4-furan-3-yl-3-hydroxy-benzylamino)-methylene]-4H-isoquinoline-1,3. -dione]	8.4	4.1	1.9	0.238	1.24	21	4 µM	0.63	0.51	0.02	0.86	13.1	2	
CCCOc1cnc(CN/C=C2\C(=O)NC(=O)c3ccc(C4CCCC4)cc32)cc1O [Example 538, 6-Cyclopentyl-4-{[(4-hydroxy-5-propoxy-pyridin-2-ylmethyl)-amino]-methylene}-4H-isoquinoline-1,3-dione]	0.3	0.2	7.1	6.63	1.04	0.63	1.2 µM	0.07	0.06		0.15		0.3	melting point: 263 to 266 °C (dec.)
O=C1NC(=O)c2ccc(I)cc2/C1=C/NCc1ccn(-c2ccsc2)c(=O)c1 [Example 539, (4Z)-6-Iodo-4-[({[2-oxo-1-(3-thienyl)-1,2-dihydropyridin-4-yl]methyl}amino)methylene]isoquinoline-1,3(2H,4H)-dione]	1.26	0.3	0.8	1.56	0.044	0.12	41.5 µM			0.29		> 50		IC50 [1]: 0.34 µM; IC50 [2]: 0.16 µM; IC50 [5]: 0.24 µM; IC50 [6]: 0.33 µM
